Assay results taken from article doi:10.1101/2023.06.29.547052v1 (biorxiv, 2023).

Molecular target: BSA (Bos taurus, UniProt P02769)
Test: biochemical

BSA, sequence (P02769 25-607): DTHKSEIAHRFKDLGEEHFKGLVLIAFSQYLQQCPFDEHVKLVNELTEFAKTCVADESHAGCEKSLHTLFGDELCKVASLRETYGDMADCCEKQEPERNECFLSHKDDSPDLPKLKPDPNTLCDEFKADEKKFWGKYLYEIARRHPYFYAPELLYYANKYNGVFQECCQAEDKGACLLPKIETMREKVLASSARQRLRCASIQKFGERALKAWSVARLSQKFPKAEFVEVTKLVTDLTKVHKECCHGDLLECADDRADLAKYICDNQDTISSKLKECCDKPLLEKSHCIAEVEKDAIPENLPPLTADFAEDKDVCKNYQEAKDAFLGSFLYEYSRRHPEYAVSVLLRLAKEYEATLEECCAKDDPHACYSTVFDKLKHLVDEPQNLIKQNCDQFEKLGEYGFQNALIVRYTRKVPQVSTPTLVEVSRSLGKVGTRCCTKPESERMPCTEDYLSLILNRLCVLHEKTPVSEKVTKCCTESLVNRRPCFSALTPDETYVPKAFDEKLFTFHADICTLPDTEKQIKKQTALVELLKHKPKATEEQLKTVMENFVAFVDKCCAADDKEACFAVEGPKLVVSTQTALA

## C=CC1=C(C)C2=Cc3c(C=C)c(C)c4[n]3[Fe]([Cl])[n]3c(c(C)c(CCC(=O)O)c3=CC3=NC(=C4)C(C)=C3CCC(=O)O)=CC1=N2 [hemin]
  Kd: 1780 ± 20 nM
